Literature values in US11992527B2, “Extracellular vesicles for vaccine delivery” (LONZA SALES AG, priority 2019, dated 2024).

Legend:
[1] = test system: mouse LPA-1/CHO cells; details: in vitro, read-out: IC50, inhibition of LPA-1-induced chemotaxis
[2] = test system: human A2058 melanoma cells; details: in vitro, read-out: IC50, inhibition of LPA-1-induced chemotaxis
[3] = test system: LPA-induced histamine release; details: in mice
[4] = test system: BALF collagen and protein; macrophage and lymphocyte infiltration induced by bleomycin
[5] = in vivo
[6] = Phase 2 study (Palmer 2018)

Structure (SMILES) | IC50 [1] | IC50 [2] | ED50, block of LPA-induced histamine release [3] | ED50, reduction of BALF collagen and protein ([4]; in lungs) | macrophage and lymphocyte infiltration induced by bleomycin ([4]; in mice) | oral bioavailability [5] | toxicity that led to early termination of the Phase 2 study [6]
Cc1noc(-c2ccc(-c3ccc(CC(=O)O)cc3)cc2)c1NC(=O)O[C@H](C)c1ccccc1 [AM095, 1,1′-Biphenyl]-4-acetic acid, 4′-[3-methyl-4-[[[(1R)-1-phenylethoxy]carbonyl]amino]-5-isoxazolyl[ ]-] | 780 nM | 230 nM | 8.3 mg/kg | 10 mg/kg | decrease both macrophage and lymphocyte infiltration | orally bioavailable | 
Cc1noc(-c2ccc(-c3ccc(C4(C(=O)O)CC4)cc3)cc2)c1NC(=O)O[C@H](C)c1ccccc1 [AM152, Cyclopropanecarboxylic acid, 1-[4′-[3-methyl-4-[[[(1R)-1-phenylethoxy]carbonyl]amino]-5-isoxazolyl][1,1′-biphenyl]-4-yl]-] |  |  |  |  |  |  | gall bladder toxicity and early signs of liver toxicity
